For this test, the target named is T1, MKK7 (Homo sapiens, UniProt O14733).
T1 construct: purchased Upstate Biotech 14-366
T1 sequence (O14733 1-419): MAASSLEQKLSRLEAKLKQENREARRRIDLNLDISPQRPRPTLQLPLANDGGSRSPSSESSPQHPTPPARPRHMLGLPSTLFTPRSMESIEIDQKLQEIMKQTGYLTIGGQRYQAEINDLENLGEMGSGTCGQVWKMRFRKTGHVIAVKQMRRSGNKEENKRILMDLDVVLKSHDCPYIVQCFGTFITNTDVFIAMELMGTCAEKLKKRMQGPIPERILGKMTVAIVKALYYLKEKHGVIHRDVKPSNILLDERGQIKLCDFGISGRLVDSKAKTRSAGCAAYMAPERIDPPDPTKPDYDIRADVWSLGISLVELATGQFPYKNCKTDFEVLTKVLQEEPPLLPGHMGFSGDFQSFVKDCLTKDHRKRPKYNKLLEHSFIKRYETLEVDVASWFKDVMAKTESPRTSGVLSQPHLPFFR
As to the kind of experiment: Determination of Km for ATP (MKK7 phosphorylation, FP read-out). The format is biochemical. The note with it: MKK7 80 nM, P1° 100 μM, RT. The method, then:
Efficient phosphorylation of P1^∘ peptide is dependent on the optimal ATP concentration. […] From the detected fluorescence polarization signals, the Michaelis-Menten constant (Km), reflecting the half-maximal phosphorylation rate, was determined for ATP.
Determination of Km for ATP (Read-out: Fluorescence Polarization): […]

As for `Nc1ncnc2c1ncn2[C@@H]1O[C@H](COP(=O)(O)OP(=O)(O)OP(=O)(O)O)[C@@H](O)[C@H]1O` [ATP], the Vmax turned out to be 0.28 mP/min.

For the origin of these results see patent US7049080B2, “Process for detecting serine/threonine kinase activity” (priority 2000, dated 2006).
